Reference: patent US8394786B2, “Quinazoline derivatives” (Janssen Pharmaceutica N.V., priority 2003, dated 2013)

Columns and labels:
SKOV3 cells = test: Serum starved proliferation assay on the ovarian carcinoma SKOV3 cells (C3); format: cell-based; settings: Homo sapiens, SK-OV-3, 72 h, EGF stimulated (100 ng/ml, 72 hours, serum free) or 72 hours with compounds; MTT cell viability assay; read-out: SKOV3 cell (C3): pIC50 (converted)
Method in brief: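 SKOV3 cells grown 24 h in 10% FCS, then treated with compound under serum-free conditions (37 °C, 5% CO2) and stimulated 72 h with EGF at 100 ng/ml final; read-out by MTT viability. Alternative format: compound for 72 h after the same 24 h FCS step, also by MTT.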

A431 cells = test: Proliferation assay on the squamous carcinoma cell line A431 cells (C5); format: cell-based; settings: Homo sapiens, A-431; 72 hours with compounds; MTT cell viability assay; read-out: A431 cell (C5): pIC50 (converted)
Protocol: The squamous carcinoma cell line (A431) was used in a cell proliferation assay, to assess the inhibitory effect of the compounds in whole cells.
In a first step the A431 cells were incubated for 24 hours in the presence of 10% FCS serum. In the second step the cells were incubated for 72 hours with the compounds to be tested at a final concentration of 100 ng/ml. The effect of the compounds on the cell proliferation was finally assessed in a standard MTT cell viability assay.

EGFR [1] = target: T1, EGFR (Homo sapiens, UniProt P00533); test: ELISA assay of EGFR tyrosine kinase activity (C4); format: biochemical; settings: poly(Glu, Tyr) coated plate, 5 μM ATP, room temperature 10 min
Protocol: The EGFR ELISA is generally described by Yang, E. B. et al., 2001, Biochimica et Biophysica Acta, 1550; 144.
For the determination of EGFR tyrosine kinase activity, 100 μl of 0.4 μg/ml poly(Glu, Tyr) in PBS was coated per well on a 96-well microplate at 37° C. overnight. […] After washing three times with PBS the plates were either used immediately or stored at 4° C. Prior to the determination of the EGFR tyrosine kinase activity, the coated plates were washed two times with PBS. Next, to each well 88 μl of an ATP dilution (50 mM Tris HCl pH 8.0, 10 mM MgCl2, 100 μM Na3VO4, 1 mM DTT, 5 μM ATP) and 2 μl with various concentrations of the compounds to be tested, were added. The EGFR tyrosine kinase-catalysed reaction was started by the addition of 10 μl of diluted EGFR (dilution→0.05 μg per well enzyme diluted in 50 mM TrisHCl pH 8.0+0.1% BSA). After incubation at room temperature for 10 min, the reaction was stopped by washing five times with PBS with 0.1% Tween 20. Subsequently […] of recombinant anti-phosphotyrosine horseradish peroxidase conjugate (1:2500) in BSA (10 mg/ml in PBS) was added. After incubation at room temperature for 1 h, the microplate was washed five times with PBS/Tween 20. After the microplate was incubated with 100 μl of TMB-ELISA (1-step Ultra TMB-ELISA, Pierce) until colour development, 100 μl of 0.5 M H2SO4 was added to stop the reaction, and it was read in a microplate reader at 450-655 nm.
Target sequence in this assay (P00533 25-1210): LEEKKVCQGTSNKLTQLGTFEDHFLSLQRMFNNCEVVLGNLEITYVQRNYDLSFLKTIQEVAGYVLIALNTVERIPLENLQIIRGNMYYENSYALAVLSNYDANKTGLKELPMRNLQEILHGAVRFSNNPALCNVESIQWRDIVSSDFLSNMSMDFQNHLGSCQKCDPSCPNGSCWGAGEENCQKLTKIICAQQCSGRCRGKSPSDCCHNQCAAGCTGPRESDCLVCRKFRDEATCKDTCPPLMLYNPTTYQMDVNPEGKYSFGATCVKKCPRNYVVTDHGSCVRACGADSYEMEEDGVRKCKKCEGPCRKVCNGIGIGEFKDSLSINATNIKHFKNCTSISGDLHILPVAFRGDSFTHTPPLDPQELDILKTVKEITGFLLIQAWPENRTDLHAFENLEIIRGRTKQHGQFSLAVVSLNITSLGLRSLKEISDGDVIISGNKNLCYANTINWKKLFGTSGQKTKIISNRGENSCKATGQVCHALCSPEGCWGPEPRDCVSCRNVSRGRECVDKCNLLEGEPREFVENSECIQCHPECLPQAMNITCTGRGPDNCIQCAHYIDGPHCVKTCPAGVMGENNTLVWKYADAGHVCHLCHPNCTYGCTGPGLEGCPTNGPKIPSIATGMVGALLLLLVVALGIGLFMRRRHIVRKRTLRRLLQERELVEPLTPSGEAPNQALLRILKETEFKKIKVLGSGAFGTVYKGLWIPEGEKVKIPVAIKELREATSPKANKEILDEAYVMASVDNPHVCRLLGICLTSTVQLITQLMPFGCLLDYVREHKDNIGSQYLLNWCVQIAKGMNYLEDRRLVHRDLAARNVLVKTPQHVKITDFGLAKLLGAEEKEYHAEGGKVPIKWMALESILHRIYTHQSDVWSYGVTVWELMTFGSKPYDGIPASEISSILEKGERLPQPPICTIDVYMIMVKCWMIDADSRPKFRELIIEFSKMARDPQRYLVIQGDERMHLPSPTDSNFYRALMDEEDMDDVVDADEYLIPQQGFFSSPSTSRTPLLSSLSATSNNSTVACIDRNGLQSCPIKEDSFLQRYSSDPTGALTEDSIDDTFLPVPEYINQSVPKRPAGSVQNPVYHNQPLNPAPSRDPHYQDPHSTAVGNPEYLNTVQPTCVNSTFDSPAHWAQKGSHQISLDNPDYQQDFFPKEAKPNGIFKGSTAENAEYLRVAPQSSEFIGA

EGFR [2] = target: T1, EGFR; test: In vitro inhibition of EGFR, Flash Plate or glass-fiber filter technology (C2); format: biochemical; design: 0.5 μg EGFR-kinase domain/well; settings: EGFR-kinase domain, 5.0 μM unlabeled ATP, read-out: Kinase activity.(C2): pIC50 (converted)
Method in brief: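 EGFR kinase domain (0.5 μg/well) phosphorylated poly(GT) with 5.0 μM ATP plus AT^33P, dose response 1·10^−6 to 1·10^−10 M. Flash Plate: biotin-poly(GT), Tris pH 8.0, 30° C, 60 min, scintillation counting. Filter: Tris pH 7.5 with MnCl2, 25° C, 10 min, 33P counted on glass-fiber filter by phosphorimaging.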
Target sequence in this assay (P00533 712-979 limits assumed): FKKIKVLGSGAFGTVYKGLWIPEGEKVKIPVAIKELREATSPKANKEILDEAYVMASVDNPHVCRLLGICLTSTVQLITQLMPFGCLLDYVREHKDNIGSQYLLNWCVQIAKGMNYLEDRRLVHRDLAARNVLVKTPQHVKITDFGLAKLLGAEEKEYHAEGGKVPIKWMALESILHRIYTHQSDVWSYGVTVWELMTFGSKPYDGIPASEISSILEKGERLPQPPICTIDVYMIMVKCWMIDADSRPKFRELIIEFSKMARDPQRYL

EGFR [3] = target: T1, EGFR; test: In vitro inhibition of EGFR using a scintillant proximity assay (C1); format: biochemical; design: 0.5 μg EGFR-kinase domain/well; settings: EGFR-kinase domain, poly(GT)biotin, 5.0 μM unlabeled ATP, 30° C. 60 minutes; read-out: EGFR SPA (C1): IC50
Protocol: In the present EGFR SPA kinase reaction assay, a kinase substrate consisting of biotinylated poly(L-glutamic acid-L-tyrosine) (poly(GT)biotin), is incubated with the aforementioned protein in the presence of (^33P) radiolabeled ATP. (^33P) phosphorylation of the substrate is subsequently measured as light energy emitted using streptavidin-coated SPA beads (Amersham Pharmacia Biotech) by trapping and quantifying the binding of the biotin tagged and radiolabeled substrate.
The EGFR SPA kinase reaction is performed at 30° C. for 60 minutes in a 96-well microtiter plate. For each of the tested compounds a full dose response 1·10^−6M to 1·10^−10M has been performed. IRESSA® and Tarceva™ (erlotinib) were used as reference compounds. The 100 μl reaction volume contains 54.5 mM TrisHCl pH 8.0, 10 mM MgCl2, 100 μM Na3VO4, 5.0 μM unlabeled ATP, 1 mM DTT, 0.009% BSA, 0.8 μCi ^33P-ATP, 0.35 μg/well poly(GT)biotin and 0.5 μg EGFR-kinase domain/well. The reaction is stopped by adding to each well 100 μl of the streptavidin beads (10 mg/ml in PBS+100 mM EDTA+100 μM ATP). The plates are than shaked at 300 rpm for 30 min to allow binding of the biotinylated substrate to the streptavidin coated beads. Than the beads are allowed to settle at the bottom of the plate for 30 minutes. The microtiterplates are centrifuges at 800 rpm for 10 minutes and the amount of phosphorylated (^33P) Poly(GT)biotin is determined by counting (30 sec/well) in a microtiterplate scintillation counter.
Target sequence in this assay (P00533 712-979 limits assumed): as above

Compound | IC50 (SKOV3 cells) | IC50 (A431 cells) | IC50 (EGFR [1]) | IC50 (EGFR [2]) | IC50 (EGFR [3]) | melting point
COc1cc2ncnc3c2cc1OC(=O)CCCCCOc1c(C)cccc1N3 [Compound 1, 4,6-ethanediylidene-19H-pyrimido[4,5-b][6,13,1]benzodioxaazacyclo-pentadecin-8(9H)-one, 10,11,12,13-tetrahydro-20-methoxy-15-methyl-] | > 2000 nM | > 1000 nM | > 1000 nM | > 10000 nM | > 100 nM | –
COc1cc2ncnc3c2cc1OCCCCCCOc1c(Cl)cccc1N3 [Compound 2, 4,6-ethanediylidene-19H-pyrimido[4,5-b][6,13,1]benzodioxaazacyclo-pentadecine, 15-chloro-8,9,10,11,12,13-hexahydro-20-methoxy-] | > 2000 nM | > 1000 nM | > 1000 nM | 100 nM | > 100 nM | 255.5 to 260.2 °C
COc1cc2ncnc3c2cc1OCCCCCCCCCOc1ccc(Cl)cc1N3 [Compound 9, 4,6-ethanediylidene-8H,22H-pyrimido[4,5-b][6,16,1]benzo-dioxaazacyclooctadecine, 20-chloro-9,10,11,12,13,14,15,16-octahydro-23-methoxy-] | – | – | > 1000 nM | 39.8 nM | 6.79 nM | 177.4 to 183.8 °C
COc1cc2ncnc3c2cc1OCCCCCN(C)Cc1ccc(Br)cc1N3 [Compound 22, 4,6-ethanediylidenepyrimido[4,5-b][6,1,12]benzoxadiazacyclo-pentadecine, 17-bromo-8,9,10,11,12,13,14,19-octahydro-20-methoxy-13-methyl-] | 257 nM | 1580 nM | 38.4 nM | 15.8 nM | – | –

Next, values leading:

IC50 (SKOV3 cells) | IC50 (A431 cells) | IC50 (EGFR [1]) | IC50 (EGFR [2]) | IC50 (EGFR [3]) | melting point | Compound
1350 nM | > 1000 nM | > 1000 nM | 15.8 nM | 3.61 nM | 241.5 to 242.7 °C | COc1cc2ncnc3c2cc1OCCCCCCOc1ccc(Cl)cc1N3 [Compound 3, 4,6-ethanediylidene-19H-pyrimido[4,5-b][6,13,1]benzodioxaazacyclo-pentadecine, 17-chloro-8,9,10,11,12,13-hexahydro-20-methoxy-]
2880 nM | – | 556 nM | 50.1 nM | 32.6 nM | 213.5 to 221.2 °C | COc1cc2ncnc3c2cc1OCCCCCOc1ccc(Cl)cc1N3 [Compound 4, 4,6-ethanediylidene-8H,18H-pyrimido[4,5-b][6,12,1]benzo-dioxaazacyclotetradecine, 16-chloro-9,10,11,12-tetrahydro-19-methoxy-]
4790 nM | – | > 1000 nM | 398 nM | 81.1 nM | 243.3 to 251.2 °C | COc1cc2ncnc3c2cc1OCCCCCCOc1ccccc1N3 [Compound 5, 4,6-ethanediylidene-19H-pyrimido[4,5-b][6,13,1]benzodioxaazacyclo-pentadecine, 8,9,10,11,12,13-hexahydro-20-methoxy-]
1820 nM | – | 359 nM | 25.1 nM | 4.4 nM | 228.6 to 234.8 °C | COc1cc2ncnc3c2cc1OCCCCCCOc1ccc(Br)cc1N3 [Compound 6, 4,6-ethanediylidene-19H-pyrimido[4,5-b][6,13,1]benzodioxaazacyclo-pentadecine, 17-bromo-8,9,10,11,12,13-hexahydro-20-methoxy-]
> 10000 nM | – | > 1000 nM | 79.4 nM | 6.64 nM | 240.6 to 243.7 °C | COc1cc2ncnc3c2cc1OCCCCCCCOc1ccc(Cl)cc1N3 [Compound 7, 4,6-ethanediylidene-8H,20H-pyrimido[4,5-b][6,14,1]benzo-dioxaazacyclohexadecine, 18-chloro-9,10,11,12,13,14-hexahydro-21-methoxy-]
> 10000 nM | – | 329 nM | 31.6 nM | 3.97 nM | 147.7 to 151.1 °C | COc1cc2ncnc3c2cc1OCCCCCCCCOc1ccc(Cl)cc1N3 [Compound 8, 4,6-ethanediylidene-21H-pyrimido[4,5-b][6,15,1]benzodioxaazacyclo-heptadecine, 19-chloro-8,9,10,11,12,13,14,15-octahydro-22-methoxy-]
